We go through 3 compounds from article PMC7655571, “Acetylcholinesterase inhibition in electric eel and human donor blood: an in vitro approach to investigate interspecies differences and human variability in toxicodynamics” (Archives of Toxicology, 2020).

The test system of one series is electric eel AChE. Particulars: cited from earlier work.
The target in series [1] is T1, Electrophorus electricus AChE (Electrophorus electricus, UniProt O42275).
T1 construct: purchased Sigma-Aldrich C2888
The series is described as follows: AChE inhibition, electric eel enzyme (Ellman method). The format is biochemical. The conditions noted are these: for AChE inhibition (in words), electric eel: concentration–response curves. In general terms: Ellman's reagent forms a yellow product with free thiols.
Description: (§1) A 1.3 mM DTNB buffer and a 6 mM acetylthiocholine buffer were prepared in the 50 mM sodium phosphate buffer, a 3 mM ethopropazine buffer was prepared in sterile water and all were stored in aliquots at − 20 °C. A 600 µM ethopropazine buffer was prepared just before use in sodium phosphate buffer.
(§2) Stock solutions were diluted in methanol to create a dosing series and also stored at − 20 °C. These series were 100× diluted in sodium phosphate buffer to get 1% methanol solutions, resulting in a final concentration of 0.1% methanol in the wells.
AChE from Electrophorus electricus (electric eel) and freshly drawn (maximum one-day-old), venous EDTA whole blood samples from healthy human donors were used. […] Following incubation for 30 min at room temperature, electric eel AChE was used directly in the enzyme activity assay (see “Enzyme activity assay”). For human blood AChE, 50 µL of the blood was added to a new 48-wells plate and 950 µL Triton buffer was added to these wells (20× dilution).
Briefly, 20 µL of electric eel AChE or 20 µL of Triton-diluted blood (either exposed or unexposed) and 20 µL ethopropazine were added to 460 µL of DTNB buffer in a 48-wells plate. […] Blank wells contained only DTNB buffer and unexposed enzyme/blood to correct for any background absorbance. To these wells, 100 µL sodium phosphate buffer was added instead of acetylthiocholine after incubation. The final concentration of electric eel AChE was 4 mU/well.
All in vitro data were analysed in GraphPad Prism (version 8.4) and are expressed as mean ± standard deviation (SD). For data analysis, vehicle control (0.1% methanol) was set at 100% for both human and electric eel AChE. For human blood, the technical replicates were averaged to perform statistical tests. […] The electric eel AChE data consisted of 3 technical replicates per experiment and 3–4 independent biological replicates.

For series [2] the following is noted: measured or estimated in plasma following human exposure, cited from earlier work.
The next series concerns the target T2, human blood AChE (Homo sapiens, UniProt P22303).
T2 construct: 90 µL undiluted blood in a 48-wells plate; from tissue; host or cells: venous EDTA whole blood from healthy human donors, lysed and diluted in Triton X-100 buffer
Description: AChE inhibition in human donor whole blood (Ellman method). The format is biochemical. Particulars: for IC50: IC50 Human, whole blood, average of 20 donors; for AChE inhibition (in words), human blood: concentration–response curves.

For series [3], the system named is human AChE (red blood cells). The conditions noted are these: source: red blood cells; ref Ajilore et al. [2018]; cited from earlier work.
Another series relates to human AChE (blood). The conditions noted are these: source: blood; ref Das et al. ([2006]); cited from earlier work.
Series [4] concerns the target human AChE (recombinant enzyme). The conditions noted are these: source: recombinant enzyme; ref Li et al. ([2019]); cited from earlier work.
The test system of another series is human AChE (neocortex). Particulars: source: neocortex; ref Jackisch et al. [2009]; cited from earlier work.

Structures are written as SMILES. “Also recorded” adds a separate entry of the source. Like-named read-outs stand apart in the source and are kept apart here.

T2 sequence (P22303 32-617 isoform P22303-2 limits assumed): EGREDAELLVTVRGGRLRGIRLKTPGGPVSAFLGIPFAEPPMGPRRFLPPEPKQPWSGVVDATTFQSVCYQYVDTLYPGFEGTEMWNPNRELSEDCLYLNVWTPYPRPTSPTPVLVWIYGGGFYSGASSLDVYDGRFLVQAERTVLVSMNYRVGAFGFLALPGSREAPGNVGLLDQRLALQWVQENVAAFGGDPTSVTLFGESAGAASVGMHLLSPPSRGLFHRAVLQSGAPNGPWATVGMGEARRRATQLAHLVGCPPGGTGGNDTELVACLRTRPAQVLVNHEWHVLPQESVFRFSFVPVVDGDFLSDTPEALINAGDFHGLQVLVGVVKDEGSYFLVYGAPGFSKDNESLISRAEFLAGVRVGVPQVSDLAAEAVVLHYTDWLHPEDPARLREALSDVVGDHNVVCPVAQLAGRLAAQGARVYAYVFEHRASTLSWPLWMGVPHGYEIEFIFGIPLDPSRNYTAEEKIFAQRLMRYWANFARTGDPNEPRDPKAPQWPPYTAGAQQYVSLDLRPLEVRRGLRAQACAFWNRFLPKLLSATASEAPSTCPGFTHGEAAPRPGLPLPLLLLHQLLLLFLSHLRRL
T1 sequence (O42275 24-633): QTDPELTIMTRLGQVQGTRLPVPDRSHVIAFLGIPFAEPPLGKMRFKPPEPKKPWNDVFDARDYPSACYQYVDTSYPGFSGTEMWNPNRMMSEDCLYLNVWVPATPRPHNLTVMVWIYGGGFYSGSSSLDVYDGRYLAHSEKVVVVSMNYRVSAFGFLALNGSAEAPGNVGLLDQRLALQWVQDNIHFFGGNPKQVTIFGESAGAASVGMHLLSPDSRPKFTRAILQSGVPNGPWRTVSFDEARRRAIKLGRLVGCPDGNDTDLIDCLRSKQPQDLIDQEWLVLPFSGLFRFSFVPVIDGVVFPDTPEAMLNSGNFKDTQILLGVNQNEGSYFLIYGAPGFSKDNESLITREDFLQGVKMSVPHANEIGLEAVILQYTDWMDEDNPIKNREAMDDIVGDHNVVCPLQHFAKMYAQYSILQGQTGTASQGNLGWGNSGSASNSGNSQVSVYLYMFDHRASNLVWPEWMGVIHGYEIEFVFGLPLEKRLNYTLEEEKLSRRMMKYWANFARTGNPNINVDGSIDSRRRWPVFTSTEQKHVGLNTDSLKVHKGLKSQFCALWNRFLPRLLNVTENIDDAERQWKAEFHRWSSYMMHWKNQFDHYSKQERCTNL
Description for human blood AChE: as §1, §2
AChE from Electrophorus electricus (electric eel) and freshly drawn (maximum one-day-old), venous EDTA whole blood samples from healthy human donors were used. […] For human blood AChE, 50 µL of the blood was added to a new 48-wells plate and 950 µL Triton buffer was added to these wells (20× dilution).
Briefly, 20 µL of electric eel AChE or 20 µL of Triton-diluted blood (either exposed or unexposed) and 20 µL ethopropazine were added to 460 µL of DTNB buffer in a 48-wells plate. […] Blank wells contained only DTNB buffer and unexposed enzyme/blood to correct for any background absorbance. To these wells, 100 µL sodium phosphate buffer was added instead of acetylthiocholine after incubation.
Unexposed, diluted blood (100 µL) was added to a 96-wells plate and 100 µL transformation agent (20 mg potassium ferricyanide, 5 mg potassium cyanide, 100 mg sodium bicarbonate and 50 µL Triton X-100 in 100 mL water) was added. […] Blank wells contained transformation reagent and buffer to correct for any background absorbance.
All in vitro data were analysed in GraphPad Prism (version 8.4) and are expressed as mean ± standard deviation (SD). For data analysis, vehicle control (0.1% methanol) was set at 100% for both human and electric eel AChE. For human blood, the technical replicates were averaged to perform statistical tests. Unpaired t tests were used to test for differences between men and women and a one-way ANOVA followed by a post-hoc Tukey test was used to compare data between different age groups (group 1: ≥ 60 years; group 2: 31–60 years; group 3: ≤ 30 years).

The term IC50 denotes the concentration that gives 50% inhibition. `CCOP(=S)(OCC)Oc1nc(Cl)c(Cl)cc1Cl` [CPF, Chlorpyrifos]: the half-maximal inhibitory concentration (IC50) with electric eel AChE (ref Assis et al. ([2012])) is 0.03 µM; in the series with electric eel AChE (ref Čolović et al. ([2011])) it was 4.5 µM; in series [1] it was above 0.35 µM; against human blood AChE, above 10 µM; in series [3] it was 200 µM; in the series with human AChE (blood), 0.12 µM. Besides, the “AChE inhibition (in words), electric eel” value in series [1] is “do not show any AChE inhibition; also recorded: did not inhibit AChE”; in series [1] (listed as chlorpyrifos), “did not show inhibition”. Also, the In vivo concentration in series [2] (ref Buratti et al. ([2003])) is at most 10 µM; in series [2] (ref Eyer et al. ([2009])), at most 5 µM; in series [2] (ref Huen et al. ([2012])), at most 5 µM. Besides, the results for the “AChE inhibition (in words), human blood” value at human blood AChE and on human blood AChE (listed as chlorpyrifos) were “do not inhibit AChE activity; also recorded: do not show any AChE inhibition; also recorded: did not inhibit AChE” and “did not show inhibition”, respectively.

For `CCOP(=S)(OCC)Oc1cc(C)nc(C(C)C)n1` [DZN, diazinon], the IC50 with electric eel AChE (ref Assis et al. ([2012])) is 0.3 µM; in the series with electric eel AChE (ref Čolović et al. ([2011])), above 200 µM; in series [1], above 8.5 µM; in series [4], 38 µM; against human blood AChE it was above 10 µM. Moreover, the results for the “AChE inhibition (in words), electric eel” value in series [1] and in series [1] (listed as diazinon) were “do not show any AChE inhibition; also recorded: did not inhibit AChE” and “did not show inhibition”, respectively. The In vivo concentration in series [2] (ref Buratti et al. ([2003])) is on record as at most 10 µM. Moreover, the “AChE inhibition (in words), human blood” value is “do not inhibit AChE activity; also recorded: do not show any AChE inhibition; also recorded: did not inhibit AChE” on human blood AChE and “did not show inhibition” at human blood AChE (listed as diazinon).

Broadly, the IC20 is the point of the concentration-response curve where the effect stands at 20%. A high value points to weaker potency. As for `CCN(C)C(=O)Oc1cccc([C@H](C)N(C)C)c1` [RI, rivastigmine], the figures for the 50% inhibitory concentration (IC50) in the series on electric eel AChE (ref Imramovsky et al. [2012]), in the series on electric eel AChE (ref Kratky et al. [2018]) and with human AChE (neocortex) were […], […] and […], respectively. In series [1] (30 min exposure, room temperature), this compound yielded an IC20 of 16 µM. Also, the “AChE inhibition (in words), electric eel” value in series [1] is “show inhibition of AChE”. Further, the In vivo concentration in series [2] (ref Hossain et al. ([2002])) is recorded as […]; in series [2] (ref Lefèvre et al. ([2016])), […].
